The source of these data is patent publication US4889858A, “Dibenz[b,e]oxepin derivatives and pharmaceutical composition containing the same” (Dainippon Pharmaceutical Co., Ltd., priority 1986, dated 1989).

Counter-ions that a name gives are not always drawn. Bounds are passed on as bounds.

Series [1] in a line: Prolonging effect of the persistent time of gasping movements in complete ischemia (decapitation). In kind it is in vivo, mice (ddY male). The conditions noted are these: for minimal effective dose: Mus musculus, po, 2 hours after administration, mice; for activity in prolonging gasping movements, in words: p.o., compared with flunarizine hydrochloride / compounds of the invention. As to the method: Test was conducted in accordance with the procedure by Wauquier et al. [Japan J. Pharmacol., 38, 1 (1985)], employing five ddY male mice weighing 20-24 g in each group. Test compounds were suspended in 0.5% tragacanth solution and then a fixed amount of the suspension was orally administered to mice in an amount of 0.1 ml/10 g body weight, while the same amount of 0.5% tragacanth solution was orally administered to control group. Two hours after the administration of the test compounds, the necks of mice were cut with scissors for decapitation. The persistent of gasping movements of isolated heads was measured and minimal effective dose was determined by statistically comparing with the data in control group.

Series [2] relates to lipid peroxidation of brain mitochondria. Kind of series: Inhibitory effect on lipid peroxidation of brain mitochondria (thiobarbituric acid method). Format: biochemical. The following applies: rat brain mitochondria; 37° C., 30 minutes; Fe++ 25 μM, ascorbic acid 50 μM. As to the method:
This test was conducted in accordance with the procedures by Kubo et al. [Arch. int. Pharmacodyn., 272, 283 (1984)]. Brain mitochondria of rat were incubated in 25 mM Tris-HCl buffer solution at 37° C. for 30 minutes in the presence of Fe^++ ion (25 μM) and ascorbic acid (50 μM), and the produced peroxidized lipid was measured by the thiobarbituric acid method.

Series [3] can be described thus: Anti-convulsant activity (Swinyard). In kind it is in vivo, mice (ddY male). The following applies: 100 mg/kg p.o.; 2 hours after administration; three mice. On the set-up: key: 9: Anticonvulsant activity was observed in all three mice.; 1: No anticonvulsant activity was observed in all three mice. Here is the method: Three ddY male mice weighing 20-24 g were employed in each group. Test compounds suspended in a 0.5% tragacanth solution were orally administered to mice at a dose of 100mg/kg in an amount of 0.1 ml/10 g body weight. The same amount of 0.5% tragacanth solution was orally administered to control group. Two hours after the administration of the test compounds, the anti-convulsant activity was measured in accordance with the procedure by Swinyard (Mercier, J., Ed., "Anticonvulsant Drugs", P. 47-65, Pargamon Press, New York, 1973).

A short description of another series: Acute toxicity. Format: in vivo, mice (ddY male). The following applies: 500 mg/kg p.o.; seven days observation; five mice. As to the method: Five ddY male mice weighing 20-24 g were employed in each group. The compound 1 of the present invention suspended in a 0.5% tragacanth solution was orally administered to mice at a dose of 500 mg/kg in an amount of 0.1 ml/10 g body weight. After the administration, the occurrence of death has been observed for seven days.

A short description of series [4]: Prolonging effect on the time to death by hypoxia (anoxia) in mice. The following applies: p.o.; compared with flunarizine hydrochloride. Format: in vivo, mice (STD-ddY male). As to the method: Five STD-ddY male mice (weighing 20-24 g) were employed in each group. A fixed amount of test compounds was suspended in 0.5% tragacanth solution and the suspension was orally administered to mice in an amount of 0.1 ml/10 g body weight. Two hours after the administration, each mouse was taken in a 2.5 liter plastic chamber and a mixed gas comprising 4% oxygen and 96% nitrogen was passed through the chamber at a rate of 4 liter/min. There was measured the time till the death (respiratory cessation) of mice. To control group, a 0.5% tragacanth solution without test compound was orally administered.

What is called minimal effective dose is the smallest amount tested that counted as effective. One may read the IC50 as the concentration that gives 50% inhibition. For `COc1cccc(C=CCN2CCN(C3c4ccccc4COc4cc(F)ccc43)CC2)c1` (stereo not shown) [A, 11-? 4-(3,-methoxycinnamyl)-1-piperazinyl-3-fluoro-6-11dihydrodibenz[b,e]oxepin, reference compound], in series [1], the minimal effective dose was above 100 mg/kg and the “activity in prolonging gasping movements, in words” value was “lower activities”. Besides, the IC50 in series [2] was above 150 µM. For the same compound, the “Score, anti-convulsant activity” value in series [3] is listed as 1.

Turning to `Cc1ccc2c(c1)OCc1ccccc1C2N1CCN(C/C=C/c2ccccc2)CC1` (stereo not shown) [B, 11-(4-cinnamyl-1-piperazinyl)-3-methyl-6,11-dihydrodibenz[b,e]oxepin, reference compound], in series [1], the minimal effective dose was above 100 mg/kg and the “activity in prolonging gasping movements, in words” value was “lower activities”. In series [2], this compound showed an IC50 above 150 µM. Besides, the “Score, anti-convulsant activity” value in series [3] turned out to be 1.

Regarding `Fc1ccc2c(c1)OCc1ccccc1C2N1CCN(C/C=C/c2ccccc2)CC1` (stereo not shown) [Compound 1, 11-(4-cinnamyl-1-piperazinyl)-3-fluoro-6,11-dihydrodibenz[b,e]oxepin], in the series “Acute toxicity”, the occurrence of death entry was “no death”. This compound also showed a minimal effective dose in series [1] of 10 mg/kg. Also, the concentration for half-maximal inhibition (IC50) in series [2] amounted to 7.8 µM. Also, the “prolonging effect under hypoxic condition, in words” value in series [4] is given as “clearly more excellent than that o flunarizine hydrochloride”. For the same compound, the “Score, anti-convulsant activity” value in series [3] came to 9.

`COc1ccc2c(c1)C(N1CCN(C/C=C/c3ccccc3)CC1)c1ccccc1CO2` (stereo not shown) [Compound 2, 11-(4-cinnamyl-1-piperazinyl)-2-methoxy-6,11-dihydrodibenz[b,e]oxepin] gave a minimal effective dose in series [1] of 3 mg/kg. Moreover, in series [4], the “prolonging effect under hypoxic condition, in words” value is on record as “clearly more excellent than that o flunarizine hydrochloride”.

`Oc1ccc2c(c1)C(N1CCN(C/C=C/c3ccccc3)CC1)c1ccccc1CO2` (stereo not shown) [Compound 3, 11-(4-cinnamyl-1-piperazinyl)-2-hydroxy-6,11-dihydrodibenz[b,e]oxepin]: the minimal effective dose in series [1] came to 30 mg/kg. The same compound showed an IC50 in series [2] of 12.3 µM.

Turning to `Fc1ccc2c(c1)COc1ccc(F)cc1C2N1CCN(C/C=C/c2ccccc2)CC1` (stereo not shown) [Compound 4], the minimal effective dose in series [1] was 30 mg/kg. In addition, the “Score, anti-convulsant activity” value in series [3] is 9.

Turning to `Fc1ccc2c(c1)OCc1c(F)cccc1C2N1CCN(C/C=C/c2ccccc2)CC1` (stereo not shown) [Compound 5], the minimal effective dose in series [1] was 3 mg/kg.

On to `Fc1ccc2c(c1)OCc1ccc(F)cc1C2N1CCN(C/C=C/c2ccccc2)CC1` (stereo not shown) [Compound 6], for which, in series [1], the minimal effective dose was found to be 10 mg/kg.

`COc1ccc(OC)c2c1OCc1ccccc1C2N1CCN(C/C=C/c2ccccc2)CC1` (stereo not shown) [Compound 7] had a minimal effective dose in series [1] of 30 mg/kg.

Consider `Fc1ccc2c(c1)C(N1CCN(CC=Cc3cccs3)CC1)c1ccccc1CO2` (stereo not shown) [Compound 8], for which the minimal effective dose in series [1] is 30 mg/kg.

With `Fc1ccc(C(c2ccc(F)cc2)N2CCN(C/C=C/c3ccccc3)CC2)cc1` [Flunarizine hydrochloride, reference compound], the minimal effective dose in series [1] worked out at 30 mg/kg. In addition, the “Score, anti-convulsant activity” value in series [3] came out at 9.
